Measurements taken from patent US20190350995A1, “THERAPEUTIC COMPOSITION DERIVED FROM ANTHOSTEMA SENEGALENSE” (LABORATOIRE MICHEL IDERNE, priority 2016, published 2019).
Values after ≈ are worked out from the molar mass of the structure shown. Where two headings read alike, the source gives them in different places.

Legend:
HIV type 1 = assay: In vitro anti-viral replication test (method of E De Clercq, MTT) against HIV type 1 in infected MT-4 cells; type: cell-based, HIV-1; conditions: for biological (inhibitory) activity against HIV-1, in words: in vitro, "significant" = CC50≥45 μg/mL and selectivity index ≥50; for HIV-1 SI: selectivity index, ratio CC50/EC50
Description: (§1) The anti-viral replication efficiency of the molecules of the chemical composition of the invention was tested in vitro against the replication of the viruses HIV type 1 (strain MO and HIV type 2 (strain ROD) in the infected MT-4 cells.
(§2) More specifically, the antiretroviral activity of the molecules was tested by effectively carrying out the method of E De Clercq in a microplate.
(§3) This method consists of producing a cell culture of MT-4 in a microplate, containing as cell culture medium: the medium developed by the Roswell Park Memorial Institute (referred to as “RPMI 1640”), comprising of foetal calf serum, glutamine, sodium bicarbonate, and gentamicin as bacterial inhibitor.
(§4) The molecules of the chemical composition of the invention are added at different concentrations into the cell growth medium. Each concentration of molecules to be tested is prepared in triplicate. The MT4 cells placed in the presence of the molecules to be tested are referred to as “treated cells”.
(§5) In each cell growth well, a defined amount of HIV-1 or HIV-2 is added in order to obtain the same concentration of virus in each well.
(§6) The cells placed in the presence of the HIV are referred to as “infected cells”.
(§7) Five days after the start of the process of infecting the MT4 cells with HIV-1 or HIV-2 in the presence of the molecules to be tested at different concentrations, a count is taken of the number of living cells by means of an MTT (tetrazolium salt) colorimetric assay by measuring the optical density at 540 nm.
(§8) As negative controls, use is made of cells without HIV 1 or HIV 2, referred to as “non-infected cells”, as well as of cells without the molecules to be tested referred to as “untreated cells”.
(§9) Thus, succinctly stated, the method of E De Clercq provides the means to obtain a density measurement at 540 nm for: • the cells infected with HIV-1 or HIV-2, treated with the molecules of the composition of the invention; • the cells not infected with HIV, treated with the molecules of the composition of the invention; • the cells infected with HIV-1 or HIV-2, not treated with the molecules of the composition of the invention; • the cells not infected with HIV, not treated with the molecules of the composition of the invention.
(§10) In particular, the effectiveness of the molecules of the composition of the invention was tested: • by measurement and calculation of the (median) 50% inhibitory concentration (IC50); • by measurement and calculation of the 50% cytotoxic concentration (CC50); • by measurement and calculation of the 50% effective concentration dose (EC50); and • by measurement and calculation of the selectivity index (SI), of the fractions containing the said molecules in the presence of the two strains of HIV.
(§11) The IC50 is the concentration of the molecule that makes it possible to decrease by 50% the viral proliferation of the negative control in vitro for a given time period, that is to say of the HIV without substance, only in its growth culture medium.
(§12) The EC50 is calculated using the following formula:
[(ODT)HIV^+]−[(ODC)HIV^+]/[(ODT)HIV^−]−[(ODC)HIV^−]×100 […]

HIV type 2 (strain ROD) = assay: In vitro anti-viral replication test (method of E De Clercq, MTT) against HIV type 2 (strain ROD) in infected MT-4 cells; type: cell-based, HIV-2; conditions: for biological (inhibitory) activity against HIV-2, in words: in vitro, "significant" = CC50≥45 μg/mL and selectivity index ≥50; for HIV-2 SI: selectivity index, ratio CC50/EC50
Description: as §1, §2, §3
The molecules of the chemical composition of the invention are added at different concentrations into the cell growth medium. […] The MT4 cells placed in the presence of the molecules to be tested are referred to as “treated cells”.
as §5, §6, §7, §8, §9, §10, §11, §12
[(ODT)HIV^+]−[(ODC)HIV^+]/[(ODT)HIV^−]−[(ODC)HIV^−]×100
Where: • (ODT)HIV^+ represents the optical density measurement at 540 nm, 5 days after infection, for the cells infected with HIV and treated with the composition of the invention, that is to say in the presence of molecules of the composition of the invention; • (ODC) HIV^+ represents the optical density measurement at 540 nm, 5 days after infection, for the cells infected with HIV in the absence of the molecules of the composition of the invention; • (ODT) HIV^− represents the optical density measurement at 540 nm, 5 days after infection, for the cells not infected with HIV and treated with the composition of the invention, that is to say in the presence of the molecules of the composition of the invention; i(ODC) HIV^− represents the optical density measurement at 540 nm, 5 days after infection, for the cells not infected with HIV in the absence of the molecules of the composition of the invention.
The selectivity index represents the ratio CC50/EC50. […]

HIV-1 or HIV-2 = assay: In vitro anti-HIV test of fractions and isolated compounds, virus type not separated in the statement; type: cell-based
Description: The anti-HIV activity was tested in vitro according to the method of Clerq E on each of the abovementioned fractions AsC4.1, AsC4.2, AsC4.3, AsC4.4, AsC4.5, AsC4.6, AsC4.7 and AsC4.8.
More than ten different compounds were obtained for all of the different mobile phases used. Each compound was individually tested against HIV-1 and HIV-2 according to the in vitro method mentioned above.

MT-4 cells = assay: 50% cytotoxic concentration in MT-4 cells (MTT); type: cell-based; conditions: for CC50: Homo sapiens; for HIV-1 CC 50: HIV-1, average over duplicates; for HIV-2 CC 50: HIV-2, average over duplicates
Description: as §3, §4, §7, §8, §9, §10
The CC50 is the concentration of active molecules that makes it possible to decrease by 50% the […]. In other words, it is the concentration of active molecules that makes it possible to decrease by 50% the viability of cells.

[1] = "significant" = CC50≥45 μg/mL and selectivity index ≥50
[2] = infected MT-4 cells, 5 days after infection, MTT, average over duplicates

SMILES | biological (inhibitory) activity against HIV-1, in words (HIV type 1) | biological (inhibitory) activity against HIV-2, in words (HIV type 2 (strain ROD)) | biological activity against HIV (HIV-1 or HIV-2), in words (HIV-1 or HIV-2; [1]) | HIV-1 SI (HIV type 1) | HIV-2 SI (HIV type 2 (strain ROD)) | HIV-1 IC 50 (HIV type 1; [2]) | HIV-2 IC 50 (HIV type 2 (strain ROD); [2]) | HIV-1 CC 50 (MT-4 cells) | HIV-2 CC 50 (MT-4 cells) | also measured
CC1(C)CC[C@]2(C(=O)O)CC=C3[C@]4(C)CCC5C(C)(C)[C@@H](OC(=O)c6ccccc6)[C@H](O)C[C@]5(C)C4CC[C@@]3(C)C2C1 (some centres unmarked) [molecule B] | at least two times greater | at least two times greater | significant biological activity | – | – | – | – | – | – | biological activity against HIV (HIV-1 or HIV-2), in words (HIV-1 or HIV-2; "significant" = CC50≥45 μg/mL and selectivity index ≥50, listed as AsC4.5.7.2): “significant” biological activity
CC(=O)OC1CCC2(C)C3CCC4C(=CC(=O)C5C(C)(C)CCCC45C)C3(C)CCC2C1(C)C (centres unmarked) [molecule A] | at least two times greater | at least two times greater | significant biological activity | – | – | – | – | – | – | biological activity against HIV (HIV-1 or HIV-2), in words (HIV-1 or HIV-2; "significant" = CC50≥45 μg/mL and selectivity index ≥50, listed as AsC4.5.1.1): “significant” biological activity
Cc1ccnc2c1NC(=O)c1cccnc1N2C1CC1 [Nevirapine, nevirapine] | – | – | – | >4 | <1 | – | – | – | – | IC50 (HIV type 1; Human immunodeficiency virus 1, MT4, 120 h, infected MT-4 cells, 5 days after infection, MTT, average over duplicates, read-out: HIV-1 IC 50): 0.05 µg/mL (≈ 0.188 µM); IC50 (HIV type 2 (strain ROD); Human immunodeficiency virus 2, MT4, 120 h, infected MT-4 cells, 5 days after infection, MTT, average over duplicates, read-out: HIV-2 IC 50): > 4 µg/mL; CC50 (MT-4 cells; MT4, HIV-1, average over duplicates, read-out: HIV-1 CC 50): 0.011 µg/mL (≈ 0.0413 µM); CC50 (MT-4 cells; MT4, HIV-2, average over duplicates, read-out: HIV-2 CC 50): > 4 µg/mL
O=c1[nH]cnc2c1ncn2[C@H]1CC[C@@H](CO)O1 [Dideoxyinosine, dideoxyinosine] | – | – | – | >50 | >50 | 2.09 µg/mL | 3.78 µg/mL | 0.68 µg/mL | 1.22 µg/mL | –
Nc1ccn([C@H]2CC[C@@H](CO)O2)c(=O)n1 [Dideoxycitidine, dideoxycitidine] | – | – | – | >20 | >20 | 0.16 µg/mL | 0.19 µg/mL | 0.12 µg/mL | 0.11 µg/mL | –
